How the values were obtained:
[1] = tested on: Sp1; assay: Western blot to detect Sp1 in LNCaP cells; assay type: cell-based, human; settings: 24 hrs
Protocol: (§1) The cells were harvested, washed and total cellular proteins were extracted as described previously (as Example 2). Fifty μg proteins were then subjected to electrophoresis in SDS-PAGE, electro-transferred to nitrocellulose filters, and immunoblotted initially with antibodies against AR, Sp1, and PSA. The same membranes were stripped and re-probed with β-actin for loading control. The result was recorded by ECL films.

[2] = tested on: BPH; assay: Therapeutic effects on BPH: Test One (castrated rats, testosterone propionate); assay type: in vivo, SD rats; settings: for Average Weight of Prostate: one month
Protocol: Sixty male SD rats were randomly divided into 6 groups, ten each. The animals were anesthetized using ketamine and castrated by removing testis under sterile conditions. After the surgery, the penicillin was injected to prevent the animals from infection. One week later, the testosterone propionate was injected subcutaneously at dose of 1 mg/rat for a month, once a day. Group 1 was served as a negative control group, and the animals of group 1 were given saline orally without any active pharmaceutical ingredient for a month beginning on the same day the testosterone propionate was injected. Group 2 was served as positive control group in which animals were given estradiol subcutaneously at a dose of 0.1 mg/rat for a month beginning on the same day the testosterone propionate was injected. Groups from 3 to 6 was served as drug treatment groups in which animals were given tested articles on the same day the testosterone propionate was injected.
Twenty-four hrs after the last dosage, the animals were euthanized and weighed. Volume and weight of prostate were measured. The averages of volume/weight and organ coefficient (average weight of prostate/average of body weight) were calculated, and statistical analysis performed (t test).

[3] = tested on: LNCaP AD; assay: MTT growth inhibition, hormone dependent LNCaP AD; assay type: cell-based; settings: Homo sapiens, LNCaP, 168 h, read-out: IC50, growth inhibition
Description: (§2) The human prostate cancer cell line LNCaP AD was purchased from the American Type Culture Collection. LNCaP AI cell line was derived from LNCaP cells using a method described previously by Gao et al. (Gao, M., Ossowski, L., and Ferrari, A. C. Activation of Rb and decline in androgen receptor protein precede retinoic acid-induced apoptosis in androgen-dependent LNCaP cells and their androgen-independent derivative. J Cell Physiol, 179: 336-346, 1999). The AD and AI cells were maintained in RPMI-1640 with 10% fetal bovine serum (FBS) and charcoal stripped fetal bovine serum, penicillin-streptomycin for incubation at 5% CO2 and 37° C. respectively.
(§3) MTT: MTT and SRB method were used to determine the effects of various isothiocyanates on cell growth as described previously (Kreis, Budman et al, 1997). Briefly, human prostate cancer cell line LNCaP grown exponentially were aliquoted into 96-well plates at a density of 2500 cells/200 μl per well. Twenty-four hrs after the incubation, the cells were exposed for seven days to serial dilutions of indicated isothiocyanate or paclitaxel. […] The absorbance was measured at wavelength 540 nm. The percent of cell survival (T/C%) were calculated based on the results of test groups to that of the control group. […]

[4] = tested on: LNCaP AI; assay: MTT growth inhibition, hormone independent LNCaP AI; assay type: cell-based; settings: Homo sapiens, LNCaP, 168 h, read-out: IC50, growth inhibition
Description: as §2, §3

[5] = In vitro dissolution (paddle method, HPLC); assay type: physicochemical; settings: 500 ml water, 37° C., 45 min, paddle 200 r/min
Protocol: Dissolution Measurement: Dissolution rates of the compositions were measured according to the procedures described in the Chinese Pharmacopeia 2005, Appendix XC, Method 2: Paddle Determination. Briefly, samples are added into 500 ml of de-aired, and deionized water which is kept at 37±0.5° C. for 45 min while the paddle rotates at 200 r/min. Take samples and let the sample be passed through the 0.8 μm filter membrane, and analyzed by HPLC. The dissolution rate was then calculated.

[6] = tested on: PSA; assay: Western blot to detect PSA in LNCaP cells; assay type: cell-based, human; settings: 24 hrs
Protocol: as §1

[7] = tested on: transcription factor Sp1; assay: Sp1-luc luciferase activity assay in transfected LNCaP AD cells; assay type: cell-based, human; settings: 24 hrs
Description: The Sp1-luc and mtSp1-luc contain three tandem repeats of consensus Sp1 sites driving the luciferase gene and its mutant. […] Effectene transfection reagent and luciferase assay kit were acquired from Qiagen (Valencia, Calif., USA) and Promega (Madison, Wis., USA). Reagents for protein electrophoresis were purchased from Bio-Rad company (USA). The other chemicals were purchased from Sigma (St. Louis, Mo.) otherwise as indicated. […] (Gao, M., Ossowski, L., and Ferrari, A. C. Activation of Rb and decline in androgen receptor protein precede retinoic acid-induced apoptosis in androgen-dependent LNCaP cells and their androgen-independent derivative. J Cell Physiol, 179: 336-346, 1999). The AD and AI cells were maintained in RPMI-1640 with 10% fetal bovine serum (FBS) and charcoal stripped fetal bovine serum, penicillin-streptomycin for incubation at 5% CO2 and 37° C. respectively. […] After incubation for 24 hrs at 5% CO2 and 37° C., the cells were transfected with 1 μg/dish of SP1-luciferase gene (Sp1-luc), or its mutant mtSp1-luc using Effectene (Qiagen, Valencia, Calif.) as the transfection reagent. […] The cells were collected, washed, lysed, and the lysates were used for luciferase activity assay using Promega luciferase assay system.

[8] = Stability testing of isothiocyanate compositions (60° C., HPLC); assay type: physicochemical; settings: sealed vials, day 10, HPLC
Protocol: Suitable amount of API (isothiocyanates, as control) and compositions were placed into clean vials, and sealed with rubber stoppers plus aluminum caps. All samples were stored at 60° C., and then assayed by a validated HPLC method at time day 0, day 5, and day 10.

## S=C=NCCc1ccccc1 [PEITC, phenethyl isothiocyanate]
[1]
  expression of Sp1 (Western blot): significantly inhibited
[2]; aqueous base formulation (Example 13-11), 1 mg/kg gavage
  Average Weight of Prostate: 0.75 g
[2]; aqueous base formulation (Example 13-11), 4 mg/kg gavage
  Average Weight of Prostate: 0.83 g
[2]; aqueous base formulation, 1 mg/kg
  Organ Coefficient: 0.21%
[2]; aqueous base formulation, 4 mg/kg
  Organ Coefficient: 0.23%
[2]; oil base formulation (Example 13-3), 1 mg/kg gavage
  Average Weight of Prostate: 0.91 g
[2]; oil base formulation (Example 13-3), 4 mg/kg gavage
  Average Weight of Prostate: 0.79 g
[2]; oil base formulation, 1 mg/kg
  Organ Coefficient: 0.25%
[2]; oil base formulation, 4 mg/kg
  Organ Coefficient: 0.23%
[3]
  IC50: 600 nM
[4]
  IC50: 600 nM
[5]
  Dissolution Rate: 0%
[6]
  expression of PSA (Western blot): significantly inhibited
[7]
  luciferase activity of Sp1-luc transfected gene: significantly decreased
[8]
  API % under 60° C. for 10 days: 95.2%
